Data reported in patent US9345734B2, “Achillea fragrantissima extract, method for preparing Achillea fragrantissima extract and method for treating chronic myeloid leukemia” (King Saud University, priority 2013, dated 2016).

Test system: K562 human leukemia cells
Assay: Leukemia K562 cell model in rats, survival after onset of circulating blast cells
Format: in vivo
Conditions: oral 30 mg/kg, treated for 7 to 14 days
Protocol: Male Waster rats (220-230 g) were used. Rats were maintained in cages with raised floors of wide wire mesh to prevent coprophagy. All animals were kept under uniform and controlled conditions of temperature and light/dark (12/12 h) cycles. The animals were fed with standard pelleted diet and water ad libitum and were left one week for acclimatization to animal room condition.
A known weight of total methanol extract and each of the isolated compounds (P1-P5) and the reference drug (TKIs) was dissolved in 3% v/v Tween 80 to produce solutions of 10% concentration.
In absence of LD50 values for the total methanol extract and each of the isolated compounds, an experimental dose of 100/mg kg was selected in this investigation to be given orally to rats. The reference drug, TKIs, were given orally at a certain dose (30 mg/kg). This dose was calculated by converting the therapeutic dose that used in human to rat's dose according to the table of Paget & Barnes (1964). […]
Rats were divided into 8 equal groups. […] After transplantation of the K562 cells, animals were monitored for the presence of circulating blast cells by blood sampling from the retro-orbital plexus according to Ratajczak et al. (1992) method.
After 5 weeks, leukemic cell transplantation in animals was monitored for the development of overt leukemia by retro-orbital plexus bleeding thrice weekly. […]

## Cc1ccc(NC(=O)c2ccc(CN3CCN(C)CC3)cc2)cc1Nc1nccc(-c2cccnc2)n1 [TKIs, 4-[(4-methyl-1-piperazinyl)methyl]-N-[4-methyl-3-[[4-(3-pyridinyl)-2-pyrimidinyl]aminophenyl]benzamide methanesulfonate]
  survival compared with control animals: not statistically different from the control animals
